Key:
Type in all cases: biochemical
[1] = molecular target: fibroblast growth factor receptor 1 (FGFR1) (Homo sapiens, UniProt P11362); experiment: kinase panel ([…] human kinases), […] inhibition at […]
[2] = molecular target: cyclin-dependent kinase 2 (CDK2) (Homo sapiens, UniProt P24941); experiment: kinase panel ([…] human kinases), […] inhibition at […]
[3] = molecular target: DYRK1A (Homo sapiens, UniProt Q13627); experiment: cell-free Z'-LYTE FRET kinase assay, dose-response; ATP competition
[4] = molecular target: CDC-like kinase 2 (CLK2) (Homo sapiens, UniProt P49760); experiment: kinase panel ([…] human kinases), […] inhibition at […]
CDC-like kinase 2 (CLK2), sequence (P49760 whole entry): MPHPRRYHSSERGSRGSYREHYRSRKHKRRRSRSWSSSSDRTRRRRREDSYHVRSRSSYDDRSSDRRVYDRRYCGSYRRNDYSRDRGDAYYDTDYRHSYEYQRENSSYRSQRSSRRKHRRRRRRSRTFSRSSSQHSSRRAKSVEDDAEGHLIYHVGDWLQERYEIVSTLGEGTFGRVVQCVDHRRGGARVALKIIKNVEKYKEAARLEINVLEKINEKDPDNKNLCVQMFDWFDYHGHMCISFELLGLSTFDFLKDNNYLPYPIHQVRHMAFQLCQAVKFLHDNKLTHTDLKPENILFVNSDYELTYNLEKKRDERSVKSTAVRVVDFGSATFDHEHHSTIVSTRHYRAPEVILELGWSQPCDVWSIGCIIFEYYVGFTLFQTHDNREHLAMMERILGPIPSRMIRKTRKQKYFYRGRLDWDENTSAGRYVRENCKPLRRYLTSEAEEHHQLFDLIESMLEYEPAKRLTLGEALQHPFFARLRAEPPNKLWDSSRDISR

fibroblast growth factor receptor 1 (FGFR1), sequence (P11362 22-822): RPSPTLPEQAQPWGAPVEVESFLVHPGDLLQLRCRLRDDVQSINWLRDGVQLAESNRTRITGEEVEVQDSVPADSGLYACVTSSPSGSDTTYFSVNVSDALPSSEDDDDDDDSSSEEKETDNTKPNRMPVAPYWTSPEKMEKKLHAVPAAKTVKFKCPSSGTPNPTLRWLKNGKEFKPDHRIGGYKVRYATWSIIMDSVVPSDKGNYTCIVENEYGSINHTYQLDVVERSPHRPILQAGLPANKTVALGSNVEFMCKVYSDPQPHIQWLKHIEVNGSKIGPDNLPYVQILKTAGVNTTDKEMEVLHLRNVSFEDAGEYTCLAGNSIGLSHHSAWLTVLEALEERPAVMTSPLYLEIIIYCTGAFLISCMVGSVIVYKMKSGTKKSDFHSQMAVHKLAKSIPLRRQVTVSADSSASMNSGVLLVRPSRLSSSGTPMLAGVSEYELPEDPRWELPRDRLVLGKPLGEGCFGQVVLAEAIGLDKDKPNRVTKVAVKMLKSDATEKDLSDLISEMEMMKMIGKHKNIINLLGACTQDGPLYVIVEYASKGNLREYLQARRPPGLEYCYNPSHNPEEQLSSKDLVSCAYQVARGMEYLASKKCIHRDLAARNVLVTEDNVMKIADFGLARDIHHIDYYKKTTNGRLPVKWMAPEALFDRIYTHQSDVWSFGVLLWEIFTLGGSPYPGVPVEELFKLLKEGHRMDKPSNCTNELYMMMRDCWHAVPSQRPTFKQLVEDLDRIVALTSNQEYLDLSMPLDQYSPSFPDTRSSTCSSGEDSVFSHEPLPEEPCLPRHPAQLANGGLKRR

% inhibition at 3 μM [1]: 69 | % inhibition at 3 μM [2]: 54 | IC50 [3]: 949 nM | % inhibition at 3 μM [4]: 89
Structure (SMILES): O=C1CC(c2c[nH]c3nccnc23)NN1 (stereo not shown) [compound 217908, NSC217908]

Reference: paper PMC11536634, “Discovering a novel dual specificity tyrosine-phosphorylation-regulated kinase 1A (DYRK1A) inhibitor and its impact on tau phosphorylation and amyloid-β formation” (Journal of Enzyme Inhibition and Medicinal Chemistry, 2024)
